Converted amounts (≈) assume the structure as drawn.
What was measured:
Assay type in all cases: cell-based
[1] = test system: Dermatophyten, Schimmelpilze, Hefen; assay: Antimycotic in-vitro activity, serial dilution test, overall comparison with prior art; conditions: in-vitro Reihenverdünnungstest
Experimental: (§1) Versuchsbeschreibung: • Die in-vitro-Prüfungen wurden im Reihenverdünnungstest mit Keiminokula von durchschnittlich 5 x 10^4 Keimen/ml Substrat durchgeführt. Als Nährmedium dienten • a) für Dermatophyten und Schimmelpilze: Sabourand's milieu d'epreuve • b) für Hefen: • Fleischextrakt-Traubenzucker-Bouillon.
(§2) Die Bebrütungstemperatur betrug 20°C, die Bebrütungsdauer lag bei 24 bis 96 Stunden bei Hefen und 96 Stunden bei Dermatophyten und Schimmelpilzen.

Aspergillus fumig. = assay: Antimycotic in-vitro activity, serial dilution test (MIC); conditions: 96 h, Reihenverdünnungstest, 5 x 10^4 Keimen/ml Substrat, Sabourand's milieu d'epreuve, 20°C, 96 Stunden, read-out: MHK-Werte in γ/ml Nährmedium, Aspergillus fumig.
Experimental: as §1, §2

Trichophyton mentagr. = assay: as above; conditions: 96 h, Reihenverdünnungstest, 5 x 10^4 Keimen/ml Substrat, Sabourand's milieu d'epreuve, 20°C, 96 Stunden, read-out: MHK-Werte in γ/ml Nährmedium, Trichophyton mentagr.
Experimental: as §1, §2

Candida albicans = assay: as above; conditions: Reihenverdünnungstest, 5 x 10^4 Keimen/ml Substrat, Fleischextrakt-Traubenzucker-Bouillon, 20°C, 24 bis 96 Stunden, read-out: MHK-Werte in γ/ml Nährmedium, Candida albicans
Experimental: as §1, §2

Torulopsis glabrata = assay: as above; conditions: Nakaseomyces glabratus; Reihenverdünnungstest, 5 x 10^4 Keimen/ml Substrat, Fleischextrakt-Traubenzucker-Bouillon, 20°C, 24 bis 96 Stunden; read-out: MHK-Werte in γ/ml Nährmedium, Torulopsis glabrata
Experimental: as §1, §2

Microsporum canis = assay: as above; conditions: 96 h, Reihenverdünnungstest, 5 x 10^4 Keimen/ml Substrat, Sabourand's milieu d'epreuve, 20°C, 96 Stunden, read-out: MHK-Werte in γ/ml Nährmedium, Microsporum canis
Experimental: as §1, §2

Row | SMILES | antimykotische Wirkung im Vergleich zu den bekannten Verbindungen (A) und (B) [1] | MIC (Aspergillus fumig.) | MIC (Trichophyton mentagr.) | MIC (Candida albicans) | MIC (Torulopsis glabrata) | MIC (Microsporum canis)
1 | CC(C)(CSc1ccc(Cl)cc1)C(O)Cn1ccnc1 (centres unmarked) [Beispiel 3, 4-(4-Chlorphenylmercapto)-3,3-dimethyl-1-(imidazol-1-yl)-butan-2-ol] | bessere antimykotische Wirkung | 16 µg/mL (≈ 51.5 µM) | 8 µg/mL (≈ 25.7 µM) | 2 µg/mL (≈ 6.43 µM) | 2 µg/mL (≈ 6.43 µM) | 2 µg/mL (≈ 6.43 µM)
2 | CCCCC(C(O)C(C)(C)Oc1ccc(C(=O)OCC)cc1)n1cncn1 (centres unmarked) [Beispiel 62] | bessere antimykotische Wirkung | 8 µg/mL (≈ 21.3 µM) | 2 µg/mL (≈ 5.33 µM) | 8 µg/mL (≈ 21.3 µM) | 32 µg/mL (≈ 85.2 µM) | 8 µg/mL (≈ 21.3 µM)
3 | CCCCC(C(O)C(C)(C)Cc1ccc(Cl)cc1Cl)n1cncn1 (centres unmarked) [Beispiel 81] | bessere antimykotische Wirkung | < 1 µg/mL | < 1 µg/mL | 2 µg/mL (≈ 5.4 µM) | 8 µg/mL (≈ 21.6 µM) | 2 µg/mL (≈ 5.4 µM)
4 | CCC(C(O)C(C)(C)Oc1ccc(Cl)cc1)n1cncn1 (centres unmarked) [Beispiel 57] | bessere antimykotische Wirkung | 32 µg/mL (≈ 103 µM) | 8 µg/mL (≈ 25.8 µM) | 8 µg/mL (≈ 25.8 µM) | 32 µg/mL (≈ 103 µM) | 8 µg/mL (≈ 25.8 µM)
5 | COCC(C)(C)C(O)C(Cc1ccc(Cl)cc1)n1cncn1 (centres unmarked) [Beispiel 9] | bessere antimykotische Wirkung | 16 µg/mL (≈ 49.4 µM) | 4 µg/mL (≈ 12.4 µM) | 8 µg/mL (≈ 24.7 µM) | 32 µg/mL (≈ 98.8 µM) | 4 µg/mL (≈ 12.4 µM)
6 | CC(C)(COc1ccc(Cl)cc1)C(O)Cn1cncn1 (centres unmarked) [Beispiel 4] | bessere antimykotische Wirkung | 16 µg/mL (≈ 54.1 µM) | 16 µg/mL (≈ 54.1 µM) | 32 µg/mL (≈ 108 µM) | > 64 µg/mL | 8 µg/mL (≈ 27 µM)
7 | CC(C)(COc1ccc(-c2ccccc2)cc1)C(O)Cn1ccnc1 (centres unmarked) [Beispiel 96] | bessere antimykotische Wirkung | 64 µg/mL (≈ 190 µM) | < 1 µg/mL | < 1 µg/mL | 16 µg/mL (≈ 47.6 µM) | < 1 µg/mL
8 | CC(C)(CSc1ccc(Cl)cc1)C(O)C(Cc1ccc(F)cc1)n1cncn1 (centres unmarked) [Beispiel 40] |  | < 1 µg/mL | < 1 µg/mL | < 1 µg/mL | 4 µg/mL (≈ 9.52 µM) | < 1 µg/mL
9 | CC(C)(CSc1ccc(Cl)cc1)C(O)C(Cc1ccc(Cl)cc1Cl)n1cncn1 (centres unmarked) [Beispiel 39] | bessere antimykotische Wirkung | 64 µg/mL (≈ 136 µM) | < 1 µg/mL | < 1 µg/mL | < 1 µg/mL | 16 µg/mL (≈ 34 µM)
10 | CC(C)(Oc1ccc(Cl)cc1Cl)C(O)C(Cc1ccc(Cl)cc1Cl)n1cncn1 (centres unmarked) [Beispiel 25] | bessere antimykotische Wirkung | > 64 µg/mL | < 1 µg/mL | > 64 µg/mL | 64 µg/mL (≈ 135 µM) | 8 µg/mL (≈ 16.8 µM)
11 | CCCCC(C(O)C(C)(C)Oc1ccc(Cl)cc1)n1cncn1 (centres unmarked) [Beispiel 52] | bessere antimykotische Wirkung | 16 µg/mL (≈ 47.4 µM) | 2 µg/mL (≈ 5.92 µM) | < 1 µg/mL | 4 µg/mL (≈ 11.8 µM) | 2 µg/mL (≈ 5.92 µM)
12 | CCOCC(C)(C)C(O)C(Cc1ccc(Cl)c(Cl)c1)n1cncn1 (centres unmarked) [Beispiel 86] | bessere antimykotische Wirkung | 8 µg/mL (≈ 21.5 µM) | 2 µg/mL (≈ 5.37 µM) | 16 µg/mL (≈ 43 µM) | 32 µg/mL (≈ 86 µM) | 4 µg/mL (≈ 10.7 µM)
13 | CCCCC(C(O)C(C)(C)Oc1ccc(Cl)cc1Cl)n1cncn1 (centres unmarked) [Beispiel 51] | bessere antimykotische Wirkung | 8 µg/mL (≈ 21.5 µM) | < 1 µg/mL | 2 µg/mL (≈ 5.37 µM) | 8 µg/mL (≈ 21.5 µM) | 2 µg/mL (≈ 5.37 µM)
14 | CCOCC(C)(C)C(O)C(Cc1ccc(Cl)cc1Cl)n1cncn1 (centres unmarked) [Beispiel 85] | bessere antimykotische Wirkung | 16 µg/mL (≈ 43 µM) | 4 µg/mL (≈ 10.7 µM) | < 1 µg/mL | 4 µg/mL (≈ 10.7 µM) | 8 µg/mL (≈ 21.5 µM)
15 | COCC(C)(C)C(O)C(Cc1ccc(Cl)cc1Cl)n1cncn1 (centres unmarked) [Beispiel 7] | bessere antimykotische Wirkung | 64 µg/mL (≈ 179 µM) | 8 µg/mL (≈ 22.3 µM) | 8 µg/mL (≈ 22.3 µM) | 16 µg/mL (≈ 44.7 µM) | 8 µg/mL (≈ 22.3 µM)
16 | CCOCC(C)(C)C(O)C(Cc1ccc(Cl)cc1)n1cncn1 (centres unmarked) [Beispiel 42] | bessere antimykotische Wirkung | 8 µg/mL (≈ 23.7 µM) | < 1 µg/mL | 2 µg/mL (≈ 5.92 µM) | 16 µg/mL (≈ 47.4 µM) | 8 µg/mL (≈ 23.7 µM)
